Entries after “also recorded” stand apart in the source; their conditions may differ.
Tests used:
[1] = test system: p-ERK in human cutaneous neurofibroma explants; assay: Human cutaneous neurofibroma explant p-ERK suppression (Biological Example 7); format: cell-based; settings: topical gel formulation (1%), harvested at 4 hours, vs vehicle gel
Text: The primary objective was to assess the efficacy of a topically-formulated compound described herein in suppressing p-ERK, a downstream biomarker of RAS/MAPK signaling in neurofibroma explants. The secondary objectives was to assess permeability (where the compound was applied topically) of neurofibroma explants treated with a compound described herein.
Primary dermal neurofibromas or cutaneous neurofibromas were obtained from patients with clinical or genetic diagnoses of NF1. Discarded human neurofibromas samples were obtained from the Stanford Surgery Clinic, using an approved human subjects protocol (Stanford IRB #18325). Specimens were identified under the direction of the Principal Investigator and placed in cell proliferation media (DMEM/F12 containing penicillin/streptomycin (0.1%); fungizone (40 μg/mL); B27 (without vitamin A).
Specimens were identified under the direction of the Principal Investigator
Specimens were chopped into 2 mm fragments and placed in 24-well plates containing cell proliferation media (DMEM/F12 containing penicillin/streptomycin (0.1%); fungizone (40 μg/mL); B27 (without vitamin A) and submerged in media with drug. For topical gel application, samples were placed in 96 well plates with epidermal surface exposed to air. […]

[2] = S9 Stability Assay, human liver S9 fraction; format: in vitro ADME
Method: Compounds were assessed for metabolic stability in human skin by assessing their rate of disappearance from human S9 skin fraction. Similarly, compounds were assessed for metabolic stability in human liver by assessing their rate of disappearance from human S9 liver fraction. The protocol below can be used to assess the difference between skin and hepatic metabolism.
The assay was carried out in 96-well microtiter plates at 37° C. Reaction mixtures (25 μL) contained a final concentration of 1 μM test compound, 2 mg/mL liver or skin S9 protein, and 1 mM NADPH in buffer (100 mM potassium phosphate, pH 7.4 buffer with 1 mM EDTA, 3 mM MgCl2). At each of the time points (0, 15, 30, and 60 minutes), 150 μL of quench solution (100% acetonitrile with 0.1% formic acid) with internal standard was transferred to each well. Besides the zero minute controls, mixtures containing the same components except the NADPH were also prepared as the negative control. Verapamil or testosterone was included as a positive control to verify assay performance. Plates were sealed and centrifuged at 4° C. for 15 minutes at 4000 rpm. The supernatant was transferred to fresh plates for LC/MS/MS analysis.
All samples were analyzed on LC/MS/MS using an AB Sciex API 4000 instrument, coupled to a Shimadzu LC-20AD LC Pump system. Analytical samples were separated using a Waters Atlantis T3 dC18 reverse phase HPLC column (20 mm×2.1 mm) at a flow rate of 0.5 mL/min. The mobile phase consisted of 0.1% formic acid in water (solvent A) and 0.1% formic acid in 100% acetonitrile (solvent B).
The extent of metabolism was calculated as the disappearance of the test compound, compared to the 0-min control reaction incubations. Initial rates were calculated for the compound concentration and used to determine t1/2 values and subsequently, the intrinsic clearance, CLint=(0.693) (1/t1/2 (min)) (mL incubation/mg of S9 protein).

MAP2K1 (MEK1) = target: T1, MAP2K1 (MEK1) (Homo sapiens, UniProt Q02750); assay: MEK Inhibition Assay (Biological Example 1b, Z'-LYTE); settings: Biological Example 1b (compounds 1, 3, 5, 7-8); read-out: Assay 1: biochemical MEK IC50
T1 construct: purchased ThermoFisher
T1 sequence (Q02750 whole entry): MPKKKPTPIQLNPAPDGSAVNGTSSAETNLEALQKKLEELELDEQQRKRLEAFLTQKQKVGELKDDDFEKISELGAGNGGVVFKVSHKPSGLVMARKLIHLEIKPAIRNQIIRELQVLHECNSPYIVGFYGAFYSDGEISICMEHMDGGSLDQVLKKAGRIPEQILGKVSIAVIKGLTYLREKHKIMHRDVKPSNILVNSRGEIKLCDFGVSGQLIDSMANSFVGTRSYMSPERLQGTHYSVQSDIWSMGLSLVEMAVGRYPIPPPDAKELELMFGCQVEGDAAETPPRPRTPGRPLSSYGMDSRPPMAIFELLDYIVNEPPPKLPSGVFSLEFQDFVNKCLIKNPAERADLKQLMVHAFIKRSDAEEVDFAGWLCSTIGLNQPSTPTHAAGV
Method: MEK1 inhibitory activity of compounds were tested using the following procedure (protocol available at thermofisher.com/content/dam/LifeTech/migration/files/drug-discovery/pdfs.par.60256.file.dat/20130430%20ssbk%20customer%20protocol%20and%20assay%20conditions.pdf). The Z′-LYTE biochemical assay (ThermoFisher) employs a fluorescence-based, coupled-enzyme format and is based on the differential sensitivity of phosphorylated and non-phosphorylated peptides to proteolytic cleavage.
Test compounds in 100% DMSO were screened in 1% DMSO (final) in the well. For 10 point titrations, 3-fold serial dilutions are conducted from the starting concentration of 30 μM.
After the 1 hour incubation, 5 μL of a 1:1024 dilution of Development Reagent A (available from Invitrogen, catalog no. PV3295) was added.
ATP solutions were diluted to a 4× working concentration in Kinase Buffer (50 mM HEPES pH 7.5, 0.01% BRIJ-35, 10 mM MgCl2, 1 mM EGTA). ATP Km apparent was previously determined using a Z′-LYTE assay. The Development Reagent was diluted in Development Buffer (available from Invitrogen, catalog no. P3127).
Assay Protocol: 2.5 μL of 4× test compound or 100 nL of 100× Test Compound plus 2.4 μL Kinase Buffer, 5 μL of the 2× Peptide/Kinase Mixture, 2.5 μL of 4×ATP Solution were added to the plates and placed on a shake plate for 30-seconds. The kinase reaction was allowed to proceed for 60-minute at room temperature, before 5 μL of Development Reagent Solution was added, and the mixture agitated for 30-seconds on a shake plate. The mixture was incubated for 60-minute at room temperature. Fluorescence was measured using a plate reader and the data were analyzed.
This control yielded 100% cleaved peptide in the Development Reaction. The 100% Phosphorylation Control, which consisted of a synthetically phosphorylated peptide of the same sequence as the peptide substrate, was designed to allow for the calculation of percent phosphorylation. This control yielded a very low percentage of cleaved peptide in the Development Reaction. The 0% Phosphorylation and 100% Phosphorylation Controls allow for the calculation of the percent phosphorylation achieved in a specific reaction well.
The minimum emission ratio in a screen was established by the 0% Inhibition Control, which contained active kinase. This control was designed to produce a 10-50% phosphorylated peptide in the Kinase Reaction. Cascade assays may produce up to 70% phosphorylated peptide.
A known inhibitor control standard curve, 10 point titration, was run for each individual kinase on the same plate as the kinase to ensure the kinase was inhibited within an expected IC50 range previously determined.
The following controls are prepared for each concentration of Test Compound assayed. […] The expected value for a non-interfering compound should be 100%. Any value outside of 90% to 110% was flagged. […] The expected value for a non-fluorescence compound should be 0%. Any value >20% was flagged.
The data in Table A was calculated. XLfit from IDBS was used. The dose response curve was curve fit to model number 205 (sigmoidal dose-response model).

C57BL/6J mice = assay: In vivo mouse model of skin and systemic toxicity (Biological Example 6b); settings: topically applied 1%, twice daily 5 days per week
Method: These mice are also shaved weekly.
Biological Example 6b was carried out with the following arms: oral vehicle, oral Trametinib, topical vehicle, and topical Trametinib (1%).

| Assay 5: human liver S9 intrinsic clearance value (μL/min/mg protein) ([2]; human liver S9) | half-life at 1 μM ([2]; pH 7.4, Table 1, human liver S9 fraction, 1 μM test compound, 2 mg/mL S9 protein, NADPH, read-out: Liver S9 t1/2) | microsomal CLint at 1 μM ([2]; pH 7.4, Table 1, human liver S9 fraction, read-out: CLint (μL/min/mg protein)) | IC50 (MAP2K1 (MEK1)) | Compound | p-ERK in human cutaneous neurofibroma explants [1] | toxicity of topical application (C57BL/6J mice) |
| --- | --- | --- | --- | --- | --- | --- |
| 57.15 μL/min/mg protein | 6 min | 57.1 µL/min/mg | 256 nM | O=C(NOCCO)c1c(Nc2ccc(I)cc2F)sc2ncc(F)cc12 [Ex. 8, 2-((2-Fluoro-4-iodophenyl)amino)-N-(2-hydroxyethoxy)-5-fluorothieno[2,3-b]pyridine-3-carboxamide] | suppression of p-ERK |  |
|  |  |  |  | CC(=O)Nc1cccc(-n2c(=O)n(C3CC3)c(=O)c3c(Nc4ccc(I)cc4F)n(C)c(=O)c(C)c32)c1 [trametinib] |  | found dead, or had to be sacrificed due to unacceptable weight loss; also recorded: significant toxicity |
